Reference: ChEMBL document CHEMBL1201862, “PubChem BioAssay data set” (2004)
Blank lines part the entries; values can stand above or below the compound they belong to. The source made the active and inactive calls.

Key:
[1] = biological target: Neuropeptide Y receptor type 1 (Homo sapiens, UniProt P25929); type: functional;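 further: HEK293 cells with a CNG channel challenged with NPY then isoproterenol; potency as antagonist that reverses NPY suppression of cAMP signal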
[2] = biological target: Neuropeptide Y receptor type 2 (Homo sapiens, UniProt P49146); type: functional, cell-based;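 further: HEK293 cells expressing the receptor and a CNG channel; stimulus was NPY near EC95 followed by isoproterenol to raise cAMP; antagonist potency measured as restoring cAMP signal that NPY suppresses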
[3] = antiviral protection against BTV-induced cell death – arbovirus, BSR cells, confirmation (AID 1250); type: functional;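 further: protection from viral cytopathic effect measured as cell viability by ATP luminescence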
[4] = biological target: 5-hydroxytryptamine receptor 1E (Homo sapiens, UniProt P28566); assay: Counterscreen assay for S1P3 antagonists: Dose response cell-based high throughput screening assay to identify antagonists of the 5-Hydroxytryptamine Receptor Subtype 1E (5HT1E). [Related pubchem assays: 1429, 485 ]; type: functional
[5] = biological target: Sphingosine 1-phosphate receptor 3 (Homo sapiens, UniProt Q99500); assay: Dose response cell-based high throughput screening assay for antagonists of the Sphingosine 1-Phosphate Receptor 3 (S1P3). [Related pubchem assays: 1429, 485 ]; type: functional
[6] = biological target: Sphingosine 1-phosphate receptor 2 (Homo sapiens, UniProt O95136); assay: Dose Response Cell Based Assay for Agonists of the S1P2 Receptor of Purchased Analogues. [Related pubchem assays: 729, 843, 854, 736 ]; type: functional
[7] = biological target: T1, Sentrin-specific protease 7 (Homo sapiens, UniProt Q9BQF6); type: functional;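 further: Luminescence-based dose-response confirmation of ultra-high-throughput screening hits, measuring inhibition of SENP7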
T1 sequence (Q9BQF6 whole entry): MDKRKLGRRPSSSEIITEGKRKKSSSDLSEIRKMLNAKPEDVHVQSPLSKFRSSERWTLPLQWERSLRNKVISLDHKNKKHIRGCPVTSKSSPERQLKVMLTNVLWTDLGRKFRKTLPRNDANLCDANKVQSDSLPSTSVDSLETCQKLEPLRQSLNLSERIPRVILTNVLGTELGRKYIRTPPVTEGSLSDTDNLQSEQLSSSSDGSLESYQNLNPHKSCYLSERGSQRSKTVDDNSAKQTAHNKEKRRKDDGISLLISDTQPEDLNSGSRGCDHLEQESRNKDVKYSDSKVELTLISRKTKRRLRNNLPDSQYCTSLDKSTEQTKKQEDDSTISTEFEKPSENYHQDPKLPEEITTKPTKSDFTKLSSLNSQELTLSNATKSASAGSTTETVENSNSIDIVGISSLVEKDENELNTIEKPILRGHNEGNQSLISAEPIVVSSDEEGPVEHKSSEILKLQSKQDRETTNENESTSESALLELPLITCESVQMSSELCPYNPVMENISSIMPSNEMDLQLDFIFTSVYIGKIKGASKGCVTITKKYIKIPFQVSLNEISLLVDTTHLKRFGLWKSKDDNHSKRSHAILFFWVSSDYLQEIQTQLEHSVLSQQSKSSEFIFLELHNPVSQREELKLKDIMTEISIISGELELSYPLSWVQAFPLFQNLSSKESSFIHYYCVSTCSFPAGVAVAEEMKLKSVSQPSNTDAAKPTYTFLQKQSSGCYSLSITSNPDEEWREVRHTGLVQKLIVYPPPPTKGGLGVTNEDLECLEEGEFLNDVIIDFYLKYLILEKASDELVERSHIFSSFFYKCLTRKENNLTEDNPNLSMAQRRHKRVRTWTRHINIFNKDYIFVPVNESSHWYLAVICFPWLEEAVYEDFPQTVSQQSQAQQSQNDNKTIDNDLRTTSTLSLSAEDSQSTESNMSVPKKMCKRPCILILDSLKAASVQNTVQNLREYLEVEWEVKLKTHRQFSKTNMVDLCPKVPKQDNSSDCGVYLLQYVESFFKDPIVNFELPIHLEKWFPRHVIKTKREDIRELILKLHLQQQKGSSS

[8] = biological target: T2, Estrogen receptor beta (Homo sapiens, UniProt Q92731); assay: blockers of SRC-3 recruitment to ERβ – biochemical, ELISA, streptavidin-HRP readout, orthogonal assay, confirmation (AID 1060)
[9] = biological target: Glutathione-S-transferase (Schistosoma japonicum, UniProt Q26513); assay: GST-antibody interaction or FRET quenching – biochemical, TR-FRET, artefact control for Vif-APOBEC3G degradation inhibitor project, dose response (AID 1117362); type: functional
[10] = viability loss in THP-1 monocytes – THP-1 cells, cytotoxicity control for Vif-APOBEC3G degradation inhibitor project, dose response (AID 1117359); type: functional; conditions: THP-1
[11] = biological target: T3, Caspase-3 (Homo sapiens, UniProt P42574); type: functional;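 further: Dose-response selectivity test against caspase-3 for candidate inhibitors of sentrin-specific proteases (SENPs)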
T3 sequence (P42574 whole entry): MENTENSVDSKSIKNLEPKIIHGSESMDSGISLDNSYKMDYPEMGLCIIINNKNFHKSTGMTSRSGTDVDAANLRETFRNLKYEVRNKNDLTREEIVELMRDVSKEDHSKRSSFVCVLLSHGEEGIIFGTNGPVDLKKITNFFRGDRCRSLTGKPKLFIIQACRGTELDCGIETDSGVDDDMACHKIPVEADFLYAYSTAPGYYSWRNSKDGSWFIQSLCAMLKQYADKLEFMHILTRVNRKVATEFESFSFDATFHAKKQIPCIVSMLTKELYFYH

[12] = biological target: T4, Sentrin-specific protease 6 (Homo sapiens, UniProt Q9GZR1); type: functional;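 further: Luminescence-based dose-response confirmatory assay of SENP6 inhibition, following up an ultra-high-throughput screen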
T4 sequence (Q9GZR1 whole entry): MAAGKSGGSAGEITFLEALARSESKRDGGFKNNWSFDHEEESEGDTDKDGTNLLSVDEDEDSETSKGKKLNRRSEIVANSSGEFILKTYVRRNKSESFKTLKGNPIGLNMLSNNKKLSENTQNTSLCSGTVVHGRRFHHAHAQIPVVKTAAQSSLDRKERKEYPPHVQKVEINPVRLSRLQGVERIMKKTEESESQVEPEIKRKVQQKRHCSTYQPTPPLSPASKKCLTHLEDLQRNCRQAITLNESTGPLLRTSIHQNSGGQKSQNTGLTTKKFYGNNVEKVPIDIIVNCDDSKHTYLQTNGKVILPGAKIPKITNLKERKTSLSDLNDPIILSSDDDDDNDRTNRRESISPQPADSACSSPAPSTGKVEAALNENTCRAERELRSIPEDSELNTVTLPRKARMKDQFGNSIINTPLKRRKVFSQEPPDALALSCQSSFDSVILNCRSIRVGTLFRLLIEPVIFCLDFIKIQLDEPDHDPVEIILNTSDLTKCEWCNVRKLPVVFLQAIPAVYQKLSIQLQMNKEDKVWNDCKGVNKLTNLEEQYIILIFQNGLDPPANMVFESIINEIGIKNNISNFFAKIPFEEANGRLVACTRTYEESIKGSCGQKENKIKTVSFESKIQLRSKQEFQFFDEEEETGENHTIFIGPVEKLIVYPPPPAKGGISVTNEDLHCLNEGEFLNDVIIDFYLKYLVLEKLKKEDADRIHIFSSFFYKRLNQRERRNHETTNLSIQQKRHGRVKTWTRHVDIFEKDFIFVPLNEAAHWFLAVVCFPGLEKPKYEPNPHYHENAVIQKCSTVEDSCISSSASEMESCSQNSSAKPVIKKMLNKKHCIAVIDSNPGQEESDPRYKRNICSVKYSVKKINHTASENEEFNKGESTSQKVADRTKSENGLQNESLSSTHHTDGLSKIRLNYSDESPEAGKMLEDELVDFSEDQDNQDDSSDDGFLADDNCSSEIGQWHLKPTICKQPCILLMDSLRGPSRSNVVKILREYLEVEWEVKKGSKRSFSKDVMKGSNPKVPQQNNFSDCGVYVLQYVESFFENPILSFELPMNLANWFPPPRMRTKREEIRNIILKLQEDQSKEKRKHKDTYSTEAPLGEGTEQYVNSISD

[13] = test system: Vero; assay: viability of Vero cells under compound – cytotoxicity control for flavivirus capping enzyme inhibitors (AID 588742); type: functional; conditions: Chlorocebus sabaeus
[14] = biological target: T5, Sentrin-specific protease 8 (Homo sapiens, UniProt Q96LD8); type: functional;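 further: luminescence read-out of SENP8 inhibition, dose-response confirmation following an ultra-high-throughput screen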
T5 sequence (Q96LD8 whole entry): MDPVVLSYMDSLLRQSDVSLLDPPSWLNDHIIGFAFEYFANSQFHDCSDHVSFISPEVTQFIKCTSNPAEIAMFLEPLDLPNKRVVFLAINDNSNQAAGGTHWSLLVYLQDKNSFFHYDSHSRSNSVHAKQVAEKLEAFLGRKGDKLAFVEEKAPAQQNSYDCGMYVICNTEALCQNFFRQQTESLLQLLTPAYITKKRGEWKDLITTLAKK

[15] = biological target: T6, Bcl-2-like protein 10 (Homo sapiens, UniProt Q9HD36); assay: Bcl-B/TR3 peptide binding disruption – biochemical, fluorescence polarization, FITC-TR3 peptide, selectivity assay for Bfl-1 inhibitor project, primary screen (AID 748);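 further: fluorescence polarization from a fluorescein-labelled TR3 peptide binding purified Bcl-B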
T6 sequence (Q9HD36 whole entry): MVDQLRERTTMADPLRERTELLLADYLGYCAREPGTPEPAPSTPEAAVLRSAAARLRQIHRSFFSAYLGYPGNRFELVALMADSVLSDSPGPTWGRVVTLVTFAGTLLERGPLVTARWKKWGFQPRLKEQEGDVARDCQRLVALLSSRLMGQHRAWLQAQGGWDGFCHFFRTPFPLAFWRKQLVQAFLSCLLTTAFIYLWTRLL

[16] = biological target: Genome polyprotein (dengue virus type 2, UniProt P29990); assay: flavivirus cap methylation enzyme inhibition – biochemical, confirmation dose response, primary screen (AID 588689); type: functional
[17] = biological target: T2, Estrogen receptor beta
[18] = biological target: T7, Estrogen receptor (Homo sapiens, UniProt P03372); assay: ERα coactivator recruitment enhancers – biochemical, TR-FRET, ERα LBD, dose response (AID 737)
T7 sequence (P03372 whole entry): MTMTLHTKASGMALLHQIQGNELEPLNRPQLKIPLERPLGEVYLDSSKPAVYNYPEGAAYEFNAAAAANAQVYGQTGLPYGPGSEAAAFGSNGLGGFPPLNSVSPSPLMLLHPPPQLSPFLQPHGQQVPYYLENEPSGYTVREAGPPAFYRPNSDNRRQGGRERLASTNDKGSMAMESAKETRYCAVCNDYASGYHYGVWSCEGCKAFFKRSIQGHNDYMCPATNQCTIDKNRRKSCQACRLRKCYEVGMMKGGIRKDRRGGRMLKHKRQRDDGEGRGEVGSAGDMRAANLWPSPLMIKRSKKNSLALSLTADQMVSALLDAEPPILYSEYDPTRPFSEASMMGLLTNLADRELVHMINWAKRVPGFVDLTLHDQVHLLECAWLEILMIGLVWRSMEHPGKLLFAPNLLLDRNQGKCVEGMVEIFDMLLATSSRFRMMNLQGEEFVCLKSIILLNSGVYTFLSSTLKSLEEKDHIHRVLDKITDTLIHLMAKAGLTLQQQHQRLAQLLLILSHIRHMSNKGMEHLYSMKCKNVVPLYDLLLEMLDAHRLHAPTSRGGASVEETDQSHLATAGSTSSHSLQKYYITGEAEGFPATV

[19] = viability loss of HPDE-C7K cells – cell-based, fluorescence, HTS, primary screen (AID 431); type: functional; conditions: Homo sapiens
[20] = fluconazole-exposed Candida albicans growth modulators – fluorescence, retest, confirmation (AID 2467); type: functional, cell-based
[21] = HPDE-C7 pancreatic duct cell viability loss – fluorescence, HTS (AID 430); type: functional, cell-based; conditions: Homo sapiens
[22] = biological target: Sphingosine 1-phosphate receptor 1 (Homo sapiens, UniProt P21453); type: functional;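 further: Tango beta-arrestin reporter U2OS cells stimulated with S1P near its EC80; inhibitor potency meaning antagonism of receptor activation by the natural agonist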
[23] = Trypanosoma cruzi growth suppression in host cells – NIH3T3 host cells, beta-gal luminescence, confirmation (AID 2044); type: functional, cell-based;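 further: intracellular parasites grown in NIH/3T3 mouse fibroblasts as host cells; luminescent beta-galactosidase reporter signal from transgenic T. cruzi replicating inside host cells; inhibitors lower the luminescence signal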
[24] = biological target: Sphingosine 1-phosphate receptor 4 (Homo sapiens, UniProt O95977); assay: Fluorescence dose response cell-based high throughput screening assay for antagonists of the Sphingosine 1-Phosphate Receptor 4 (S1P4). [Related pubchem assays: 1524 (Confirmation in triplicates.), 1510 (Primary screen.)]; type: functional
[25] = NIH-3T3 fibroblast cytotoxicity, dose response, cytotoxicity control, cell-based, fluorescence, Alamar Blue, secondary assay (AID 2327); type: functional;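 further: NIH-3T3 mouse fibroblasts cultured with fluconazole at 8 µg/mL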
[26] = NIH3T3 cell viability loss – ATP luminescence, mouse fibroblasts, counter-screen, dose response (AID 2010); type: functional, cell-based;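 further: cells exposed to compound for about 90 hours before reading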

T2 sequence (Q92731 whole entry): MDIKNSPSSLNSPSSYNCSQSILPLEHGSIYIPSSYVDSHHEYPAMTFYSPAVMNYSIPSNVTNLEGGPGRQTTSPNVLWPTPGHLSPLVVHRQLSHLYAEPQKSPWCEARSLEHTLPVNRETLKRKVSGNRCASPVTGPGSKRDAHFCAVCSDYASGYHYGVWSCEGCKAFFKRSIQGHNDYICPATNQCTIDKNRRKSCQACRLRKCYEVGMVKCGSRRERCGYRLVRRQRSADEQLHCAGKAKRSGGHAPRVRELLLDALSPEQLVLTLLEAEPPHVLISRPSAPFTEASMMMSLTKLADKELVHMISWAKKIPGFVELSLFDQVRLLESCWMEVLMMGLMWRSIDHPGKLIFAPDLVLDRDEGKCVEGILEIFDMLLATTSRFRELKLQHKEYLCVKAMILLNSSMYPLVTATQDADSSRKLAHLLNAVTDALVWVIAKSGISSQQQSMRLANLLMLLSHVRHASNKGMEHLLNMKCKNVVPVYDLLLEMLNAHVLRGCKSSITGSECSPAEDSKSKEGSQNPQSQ
Sequence of Genome polyprotein (P29990 2492-3391 limits assumed): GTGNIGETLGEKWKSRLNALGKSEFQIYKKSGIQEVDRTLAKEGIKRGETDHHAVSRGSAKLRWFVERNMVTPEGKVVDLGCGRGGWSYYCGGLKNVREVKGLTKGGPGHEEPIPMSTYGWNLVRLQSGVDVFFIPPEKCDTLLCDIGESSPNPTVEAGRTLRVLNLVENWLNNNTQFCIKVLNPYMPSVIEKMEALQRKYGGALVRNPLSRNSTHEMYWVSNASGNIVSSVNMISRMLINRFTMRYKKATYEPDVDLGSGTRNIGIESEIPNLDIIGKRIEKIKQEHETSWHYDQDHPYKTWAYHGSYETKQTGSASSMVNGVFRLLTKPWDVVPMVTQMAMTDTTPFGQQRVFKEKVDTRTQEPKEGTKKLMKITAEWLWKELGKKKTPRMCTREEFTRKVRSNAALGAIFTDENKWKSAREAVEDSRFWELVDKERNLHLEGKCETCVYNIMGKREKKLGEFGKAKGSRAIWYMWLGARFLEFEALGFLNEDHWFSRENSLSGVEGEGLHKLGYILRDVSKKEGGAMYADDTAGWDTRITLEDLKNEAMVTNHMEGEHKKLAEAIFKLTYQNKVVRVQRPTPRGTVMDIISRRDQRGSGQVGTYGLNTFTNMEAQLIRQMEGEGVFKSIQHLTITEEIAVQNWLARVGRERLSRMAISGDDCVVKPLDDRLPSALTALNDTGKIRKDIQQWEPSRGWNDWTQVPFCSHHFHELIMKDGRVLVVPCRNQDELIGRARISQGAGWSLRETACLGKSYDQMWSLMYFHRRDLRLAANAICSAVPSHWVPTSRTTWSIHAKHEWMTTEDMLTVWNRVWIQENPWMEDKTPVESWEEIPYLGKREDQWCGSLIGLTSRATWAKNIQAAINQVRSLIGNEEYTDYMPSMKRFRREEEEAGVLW
Sequence of Sphingosine 1-phosphate receptor 1 (P21453 whole entry): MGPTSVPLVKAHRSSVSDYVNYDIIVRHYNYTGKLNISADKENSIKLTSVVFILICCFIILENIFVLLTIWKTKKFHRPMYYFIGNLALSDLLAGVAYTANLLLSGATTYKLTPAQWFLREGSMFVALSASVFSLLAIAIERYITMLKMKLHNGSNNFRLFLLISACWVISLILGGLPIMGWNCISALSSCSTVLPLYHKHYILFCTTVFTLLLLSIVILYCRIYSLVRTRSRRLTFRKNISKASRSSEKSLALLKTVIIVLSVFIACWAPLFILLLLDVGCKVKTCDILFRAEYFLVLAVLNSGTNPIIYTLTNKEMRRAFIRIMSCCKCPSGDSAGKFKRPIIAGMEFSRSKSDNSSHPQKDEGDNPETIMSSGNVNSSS
Sequence of Sphingosine 1-phosphate receptor 3 (Q99500 whole entry): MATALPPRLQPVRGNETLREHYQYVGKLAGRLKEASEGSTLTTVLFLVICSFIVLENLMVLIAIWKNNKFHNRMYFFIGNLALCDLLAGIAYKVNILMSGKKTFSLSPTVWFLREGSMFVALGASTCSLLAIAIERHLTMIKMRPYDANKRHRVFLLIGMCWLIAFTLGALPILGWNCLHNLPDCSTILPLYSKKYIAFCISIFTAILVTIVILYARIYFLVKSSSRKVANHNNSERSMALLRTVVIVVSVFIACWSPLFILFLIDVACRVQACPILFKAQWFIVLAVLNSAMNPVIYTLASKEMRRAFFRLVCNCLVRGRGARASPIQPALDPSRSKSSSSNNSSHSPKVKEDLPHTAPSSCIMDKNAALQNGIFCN
Sequence of Sphingosine 1-phosphate receptor 4 (O95977 whole entry): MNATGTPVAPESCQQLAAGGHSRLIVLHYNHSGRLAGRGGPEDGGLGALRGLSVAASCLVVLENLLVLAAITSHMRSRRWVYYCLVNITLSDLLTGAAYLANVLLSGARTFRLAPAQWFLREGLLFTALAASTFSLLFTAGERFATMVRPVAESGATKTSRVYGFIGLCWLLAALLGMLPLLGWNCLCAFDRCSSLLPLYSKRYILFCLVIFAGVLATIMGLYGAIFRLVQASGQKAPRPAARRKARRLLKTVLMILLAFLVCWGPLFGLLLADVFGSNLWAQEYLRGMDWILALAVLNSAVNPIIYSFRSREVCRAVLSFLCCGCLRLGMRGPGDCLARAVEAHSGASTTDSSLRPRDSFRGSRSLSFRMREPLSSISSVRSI
Sequence of 5-hydroxytryptamine receptor 1E (P28566 whole entry): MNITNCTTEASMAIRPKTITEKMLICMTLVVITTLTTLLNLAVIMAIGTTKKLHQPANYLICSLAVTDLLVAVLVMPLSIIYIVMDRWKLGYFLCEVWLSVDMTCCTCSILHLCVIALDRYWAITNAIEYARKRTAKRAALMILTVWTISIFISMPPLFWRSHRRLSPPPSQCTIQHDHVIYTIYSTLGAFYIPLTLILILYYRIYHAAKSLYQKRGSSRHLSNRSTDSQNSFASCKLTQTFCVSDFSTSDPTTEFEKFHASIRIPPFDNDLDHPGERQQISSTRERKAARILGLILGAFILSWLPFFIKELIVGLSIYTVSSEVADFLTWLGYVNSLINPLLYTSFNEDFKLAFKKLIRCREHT
Sequence of Glutathione-S-transferase (Q26513 whole entry): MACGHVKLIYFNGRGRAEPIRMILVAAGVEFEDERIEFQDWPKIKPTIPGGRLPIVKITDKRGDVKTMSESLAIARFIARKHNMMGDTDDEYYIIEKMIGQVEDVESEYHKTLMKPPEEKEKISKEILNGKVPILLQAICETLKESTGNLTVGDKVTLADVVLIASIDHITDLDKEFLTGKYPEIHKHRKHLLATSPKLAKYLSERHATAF
Sequence of Neuropeptide Y receptor type 2 (P49146 whole entry): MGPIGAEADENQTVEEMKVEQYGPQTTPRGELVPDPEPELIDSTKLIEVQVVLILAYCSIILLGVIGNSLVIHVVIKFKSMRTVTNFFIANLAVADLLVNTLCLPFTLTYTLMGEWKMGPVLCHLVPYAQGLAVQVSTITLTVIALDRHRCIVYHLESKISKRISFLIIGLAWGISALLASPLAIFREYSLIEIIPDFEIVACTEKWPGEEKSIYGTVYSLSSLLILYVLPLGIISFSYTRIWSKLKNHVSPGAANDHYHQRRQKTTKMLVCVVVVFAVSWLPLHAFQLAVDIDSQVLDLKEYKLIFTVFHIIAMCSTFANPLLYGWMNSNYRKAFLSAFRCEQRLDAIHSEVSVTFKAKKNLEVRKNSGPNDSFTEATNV
Sequence of Sphingosine 1-phosphate receptor 2 (O95136 whole entry): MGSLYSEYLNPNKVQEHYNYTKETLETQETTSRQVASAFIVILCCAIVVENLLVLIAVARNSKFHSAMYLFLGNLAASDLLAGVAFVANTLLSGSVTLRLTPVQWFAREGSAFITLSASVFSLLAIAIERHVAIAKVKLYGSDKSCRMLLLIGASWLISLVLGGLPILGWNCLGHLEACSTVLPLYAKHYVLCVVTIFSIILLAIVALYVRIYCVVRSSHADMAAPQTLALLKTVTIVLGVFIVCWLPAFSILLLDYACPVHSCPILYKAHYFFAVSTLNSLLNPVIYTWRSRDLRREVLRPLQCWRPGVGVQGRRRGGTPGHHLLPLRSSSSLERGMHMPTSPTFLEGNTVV
Sequence of Neuropeptide Y receptor type 1 (P25929 whole entry): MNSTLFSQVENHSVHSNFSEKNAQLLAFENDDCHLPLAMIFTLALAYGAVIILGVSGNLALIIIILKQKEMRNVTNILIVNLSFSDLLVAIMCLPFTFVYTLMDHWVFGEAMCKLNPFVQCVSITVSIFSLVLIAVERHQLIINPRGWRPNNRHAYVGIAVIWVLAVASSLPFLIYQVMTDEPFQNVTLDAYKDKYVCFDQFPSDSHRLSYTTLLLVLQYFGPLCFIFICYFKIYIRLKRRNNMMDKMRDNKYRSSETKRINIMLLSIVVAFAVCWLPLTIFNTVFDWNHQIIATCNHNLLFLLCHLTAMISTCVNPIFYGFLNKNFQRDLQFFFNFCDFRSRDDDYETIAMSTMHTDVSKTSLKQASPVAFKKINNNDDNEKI

- EC50 [6]: > 30 µM (not active)
SMILES: Cc1noc(C)c1C(=O)OCC(=O)c1cc(C)n(Cc2ccccc2)c1C

- IC50 [7]: 23.9 µM (active)
- IC50 [8]: 0.348 µM (not active)
- IC50 [9]: > 100 µM (active)
- IC50 [11]: 14 µM (active)
- IC50 [12]: 8.69 µM (active)
- IC50 [15]: 11.4 µM (active)
- IC50 [16]: > 100 µM (active)
- IC50 [17]: 8.75 µM (active)
SMILES: Cc1ccc2c(c1)c(=O)c1c3n2CCN(C(=O)CCl)C3CC1 (configuration not stated)
- CC50 [10]: 10.9 µM (active)
- CC50 [13]: 13.1 µM (active)
- IC50 [14]: 14.2 µM (active)

Second part, the compound before the results:

SMILES: O=C(CN(Cc1ccc2c(c1)OCO2)C(=O)CSc1nc2ccccc2o1)NC1CCCCC1
- IC50 [1]: 8.58 µM (active)
- IC50 [2]: 13.7 µM (not active)

SMILES: C=CCN(CC=C)C(=S)NC(=O)Cc1cccc2ccccc12
- IC50 [3]: 31.6 µM (active)

SMILES: CCCn1nc2ccccc2c1P(=O)(N1CCOCC1)N1CCOCC1
- IC50 [4]: > 50 µM (not active)
- IC50 [5]: > 50 µM (not active)

SMILES: Cc1ccc(-c2nnc(S)n2/N=C/C=C/c2ccccc2[N+](=O)[O-])cc1
- IC50 [15]: > 100 µM (inactive)
- EC50 [18]: 6.52 µM (active)

SMILES: CS(=O)(=O)c1nc(-c2cccs2)cc(C(F)(F)F)n1
- EC50 [19]: 2.73 µM (active)
- EC50 [20]: > 38 µM (not active)
- EC50 [21]: 2.66 µM (active)
- IC50 [22]: 22.9 µM (not active)
- EC50 [23]: 2.57 µM (active)
- IC50 [24]: 0.989 µM (active)
- EC50 [25]: 4.62 µM (inconclusive)
- EC50 [26]: 3.19 µM (active)
